The results in this text go back to patent US12522594B2, “2-heteroaryl-3-oxo-2,3-dihydropyridazine-4-carboxamides for the treatment of cancer” (Deutsches Krebsforschungszentrum, priority 2017, dated 2026).

Values joined by “and” are separate entries in the source; they are usually repeats but may differ in a detail not shown here. Equal entries are not always repeated.

As usually defined, the IC50 is the concentration at which inhibition is half-maximal.

What all share (assay type): cell-based
For test [1], the target named is T1, AHR (Homo sapiens, UniProt P35869).
T1 sequence (P35869 11-848): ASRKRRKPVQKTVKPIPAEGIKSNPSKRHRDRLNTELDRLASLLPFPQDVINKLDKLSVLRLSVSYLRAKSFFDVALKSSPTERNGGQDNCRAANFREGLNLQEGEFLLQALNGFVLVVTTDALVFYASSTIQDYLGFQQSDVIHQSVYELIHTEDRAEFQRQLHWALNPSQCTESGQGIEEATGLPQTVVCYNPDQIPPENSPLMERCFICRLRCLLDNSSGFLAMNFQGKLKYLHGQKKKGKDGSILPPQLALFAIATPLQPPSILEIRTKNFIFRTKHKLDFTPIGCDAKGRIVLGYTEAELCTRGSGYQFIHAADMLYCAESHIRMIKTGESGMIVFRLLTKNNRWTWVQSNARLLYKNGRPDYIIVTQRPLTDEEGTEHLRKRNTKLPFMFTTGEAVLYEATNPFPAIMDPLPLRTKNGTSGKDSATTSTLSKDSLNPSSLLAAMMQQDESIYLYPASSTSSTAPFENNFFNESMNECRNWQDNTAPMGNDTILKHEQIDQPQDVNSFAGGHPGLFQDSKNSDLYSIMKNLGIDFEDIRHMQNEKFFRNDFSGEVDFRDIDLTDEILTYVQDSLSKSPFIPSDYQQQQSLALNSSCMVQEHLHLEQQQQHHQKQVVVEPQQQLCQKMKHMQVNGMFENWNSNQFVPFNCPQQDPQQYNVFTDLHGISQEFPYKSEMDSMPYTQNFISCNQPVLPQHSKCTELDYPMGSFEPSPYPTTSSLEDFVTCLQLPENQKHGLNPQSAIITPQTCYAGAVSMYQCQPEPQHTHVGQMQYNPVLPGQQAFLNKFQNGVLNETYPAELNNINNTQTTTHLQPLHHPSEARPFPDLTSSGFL
In words: In vitro assay 3: AHR-regulated CYP1A1 expression in human cell line (U937, qPCR, KA stimulation). As to conditions: U937 cells, 200 uM KA, 6 hours, CYP1A1 expression by qPCR; read-out: Assay 3: Hum CYP1A1 Antagonism IC50. Put shortly: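 U937 human monocytic cells were stimulated with 200 uM KA for 6 h, with or without compound at eight concentrations from 1 nM to 3 uM, in duplicate. CYP1A1 mRNA was quantified by Taqman qPCR as fold expression normalised to HPRT. Unstimulated cells served as negative control.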
A general note: Real-time PCR tracks product formation cycle by cycle.

A further test relates to human monocytes. In words: In vitro assay 4: rescue of TNFα production from human primary monocytes (LPS + KA). As to conditions: one value per donor; for Individual Donors Conc of highest rescue: concentration (of 1, 0.3, 0.1 uM tested) at which highest TNFα rescue was observed; for Individual Donors % rescue TNFα normalised to ref cmpd: human monocytes, 10 ng/mL LPS + 200 uM KA, 18 hours, highest percent rescue relative to highest rescue with GNF-351. How it is done:
In Vitro Assay 4: Rescue of TNFα Production from Human Primary Monocytes
The ability of the substances to enhance immune cell activity was determined. The substances were tested for their capacity to reverse KA-induced inhibition of TNFα production by LPS-stimulated human monocytes. Human monocytes were purified by negative selection from donor PBMCs using Miltenyi beads and seeded at 2×10^5 cells/well in complete growth medium (RPMI 1640, 10% FCS). Monocytes were incubated with 10 ng/mL LPS (O127:B8, #L4516, Sigma) and 200 uM KA (#3375, Sigma) and substances were added at concentrations of 1 uM, 0.3 uM and 0.1 uM and cultured for 18 hours. LPS alone served as the positive control. TNFα production in the supernatant was measured by Meso Scale Discovery immunoassay and the ability of the substances to rescue TNFα production was calculated as a percentage of LPS stimulation and KA-induced inhibition and normalized to the donor-specific response with the reference AHR antagonist compound GNF-351 (Smith et al., J Pharmacol Exp Ther, 2011, 338(1):318-27).

For test [2], the target named is T1, AHR. Nature of the test: In vitro assay 1: antagonism in human cell line (transactivation assay, U87 cells prestimulated with kynurenic acid, DRE firefly luciferase reporter). Further details: host or cells: U87 glioblastoma cells, stably transfected with DRE firefly luciferase and renilla reporter constructs. As to conditions: 150 uM kynurenic acid, 20 hours, read-out: Assay 1: AHR-luc Hum Antagonism IC50. Put shortly: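 U87 glioblastoma cells with endogenous AHR, stably carrying a DRE-driven firefly luciferase reporter and a constitutive renilla reporter. Cells prestimulated with the AHR agonist kynurenic acid before compound addition; data normalized to positive and negative controls.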
A general note: Reporter assays use an easily measured gene product as a stand-in for the process of interest.

In test [3] the target is T1, AHR. In words: In vitro assay 2: agonism in human cell line (transactivation assay, U87 cells, DRE firefly luciferase reporter). As to conditions: no kynurenic acid, 20 hours, read-out: Assay 2: AHR-luc Hum Agonism IC50. More on the design: host or cells: U87 glioblastoma cells, stably transfected with DRE firefly luciferase and renilla reporter constructs. Put shortly: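 U87 glioblastoma cells with endogenous AHR, stably carrying DRE-driven firefly luciferase and constitutive renilla reporters. 300 uM kynurenic acid served as positive activation control; data normalized to positive and negative controls.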

As to `O=C(N[C@@H]1CCC[C@@H]1O)c1cc(-c2ccc(Cl)cc2)nn(-c2cccnc2)c1=O` [Example 138, 6-(4-Chlorophenyl)-N-[(1R,2S)-2-hydroxycyclopentyl]-3-oxo-2-(pyridin-3-yl)-2,3-dihydropyridazine-4-carboxamide], the IC50 at AHR [1] was 0.00761 µM; at AHR [2] it was 0.00904 µM; at AHR [3] it was > 20 µM. The “Individual Donors Conc of highest rescue” value with human monocytes was 0.1 µM and 0.3 µM. In addition, the “Individual Donors % rescue TNFα normalised to ref cmpd” value in the test on human monocytes was 49% and 84%.
With `CC(C)[C@@H](CO)NC(=O)c1cc(-c2ccc(Cl)cc2)nn(-c2cnn(C)c2)c1=O` [Example 16, 6-(4-Chlorophenyl)-N-[(2S)-1-hydroxy-3-methylbutan-2-yl]-2-(1-methyl-1H-pyrazol-4-yl)-3-oxo-2,3-dihydropyridazine-4-carboxamide], the IC50 was 0.00249 µM on AHR [1], 0.00369 µM on AHR [2] and > 20 µM on AHR [3]. Also, the “Individual Donors Conc of highest rescue” value with human monocytes is 1 µM. In addition, in the test with human monocytes, the “Individual Donors % rescue TNFα normalised to ref cmpd” value was 249% and 165%.
Turning to `CCC(CO)NC(=O)c1cc(-c2ccc(C)cc2)nn(-c2cnn(C)c2)c1=O` (single isomer, unassigned) [Example 5, N-(1-Hydroxybutan-2-yl)-6-(4-methylphenyl)-2-(1-methyl-1H-pyrazol-4-yl)-3-oxo-2,3-dihydropyridazine-4-carboxamide], the IC50 was 0.00345 µM on AHR [1], 0.00599 µM on AHR [2] and > 20 µM on AHR [3]. Also, the “Individual Donors Conc of highest rescue” value with human monocytes was 1 µM. Moreover, the “Individual Donors % rescue TNFα normalised to ref cmpd” value in the test on human monocytes was 67% and 99% and 61%.
On to `Cc1ccc(-c2cc(C(=O)NCC(O)C(F)F)c(=O)n(-c3cnn(C)c3)n2)cc1` (stereo not drawn) [Example 13, N-(3,3-Difluoro-2-hydroxypropyl)-6-(4-methylphenyl)-2-(1-methyl-1H-pyrazol-4-yl)-3-oxo-2,3-dihydropyridazine-4-carboxamide], for which the IC50 is 0.02 µM on AHR [1], 0.0325 µM at AHR [2] and > 20 µM on AHR [3]. In addition, the “Individual Donors Conc of highest rescue” value with human monocytes was 1 µM. Moreover, in the test with human monocytes, the “Individual Donors % rescue TNFα normalised to ref cmpd” value was 24% and 85%.
Turning to `Cn1cc(-n2nc(-c3ccc(OC(F)(F)F)cc3)cc(C(=O)N[C@H](CO)C(F)(F)F)c2=O)cn1` [Example 47, 2-(1-Methyl-1H-pyrazol-4-yl)-3-oxo-N-[(2R)-1,1,1-trifluoro-3-hydroxypropan-2-yl]-6-[4-(trifluoromethoxy)phenyl]-2,3-dihydropyridazine-4-carboxamide], the values for the IC50 at AHR [1], at AHR [2] and at AHR [3] were 0.00166 µM, 0.00152 µM and > 20 µM, respectively. For the same molecule, the “Individual Donors Conc of highest rescue” value in the test on human monocytes is 1 µM. The “Individual Donors % rescue TNFα normalised to ref cmpd” value in the test on human monocytes is 68% and 64%.
Consider `O=C(N[C@H]1CCC[C@H]1O)c1cc(-c2ccc(OC(F)(F)F)cc2)nn(-c2cccnc2)c1=O` [Example 147, N-[(1S,2R)-2-Hydroxycyclopentyl]-3-oxo-2-(pyridin-3-yl)-6-[4-(trifluoromethoxy)phenyl]-2,3-dihydropyridazine-4-carboxamide], for which the IC50 is 0.0111 µM at AHR [1], 0.0122 µM at AHR [2] and > 20 µM at AHR [3]. In the test on human monocytes, the “Individual Donors Conc of highest rescue” value was 0.1 µM and 0.3 µM. Further, the “Individual Donors % rescue TNFα normalised to ref cmpd” value with human monocytes was 50% and 89%.
Take `Cc1ccc(-c2cc(C(=O)NCC(O)C(F)(F)F)c(=O)n(-c3cnn(C)c3)n2)cc1` (single isomer, unassigned; enantiomer 2) [Example 12, (+)-6-(4-Methylphenyl)-2-(1-methyl-1H-pyrazol-4-yl)-3-oxo-N-(3,3,3-trifluoro-2-hydroxypropyl)-2,3-dihydropyridazine-4-carboxamide, Enantiomer 2]: the IC50 was 0.0185 µM on AHR [1], 0.0232 µM at AHR [2] and > 20 µM on AHR [3]. Further, the “Individual Donors Conc of highest rescue” value in the test on human monocytes was 0.1 μM (2×) and 1 μM and 0.3 μM. For the same molecule, the “Individual Donors % rescue TNFα normalised to ref cmpd” value in the test with human monocytes was 74% and 122% and 213% and 109%.
As to `Cn1cc(-n2nc(-c3ccc(Cl)cc3)cc(C(=O)NCC(O)C(F)F)c2=O)cn1` (stereo not drawn) [Example 21, 6-(4-Chlorophenyl)-N-(3,3-difluoro-2-hydroxypropyl)-2-(1-methyl-1H-pyrazol-4-yl)-3-oxo-2,3-dihydropyridazine-4-carboxamide], the IC50 at AHR [1] was 0.0182 µM; on AHR [2], 0.028 µM; on AHR [3], > 20 µM. Further, the “Individual Donors Conc of highest rescue” value with human monocytes is 0.3 µM and 1 µM. Moreover, in the test on human monocytes, the “Individual Donors % rescue TNFα normalised to ref cmpd” value was 87% and 77%.
Consider `Cn1cc(-n2nc(-c3ccc(Cl)cc3)cc(C(=O)NCC(O)C(F)(F)F)c2=O)cn1` (stereo not drawn) [Example 18, 6-(4-Chlorophenyl)-2-(1-methyl-1H-pyrazol-4-yl)-3-oxo-N-(3,3,3-trifluoro-2-hydroxypropyl)-2,3-dihydropyridazine-4-carboxamide], for which the IC50 is 0.0113 µM on AHR [1], 0.0142 µM at AHR [2] and > 20 µM at AHR [3]. In the test on human monocytes, the “Individual Donors Conc of highest rescue” value was 1 μM (2×) and 0.3 μM (2×). The “Individual Donors % rescue TNFα normalised to ref cmpd” value with human monocytes is 83% and 73% and 76% and 105%.
In the case of `O=C(NCC(O)C(F)F)c1cc(-c2ccc(Cl)cc2)nn(-c2cccnc2)c1=O` (racemic) [Example 79, 6-(4-Chlorophenyl)-N-[(2RS)-3,3-difluoro-2-hydroxypropyl]-3-oxo-2-(pyridin-3-yl)-2,3-dihydropyridazine-4-carboxamide], the IC50 on AHR [1] was 0.0804 µM; on AHR [2] it was 0.0395 µM; on AHR [3] it was > 20 µM. Moreover, the “Individual Donors Conc of highest rescue” value in the test with human monocytes is 0.3 µM and 0.1 µM. In the test on human monocytes, the “Individual Donors % rescue TNFα normalised to ref cmpd” value is 76% and 63%.
Consider `Cn1cc(-n2nc(-c3ccc(Cl)cc3)cc(C(=O)NCC(O)C(F)F)c2=O)cn1` (single isomer, unassigned; (-)) [Example 22, (−)-6-(4-Chlorophenyl)-N-(3,3-difluoro-2-hydroxypropyl)-2-(1-methyl-1H-pyrazol-4-yl)-3-oxo-2,3-dihydropyridazine-4-carboxamide], for which the IC50 on AHR [1] was 0.0112 µM; at AHR [2], 0.02 µM; at AHR [3], > 20 µM. The “Individual Donors Conc of highest rescue” value with human monocytes was determined as 1 µM. Further, the “Individual Donors % rescue TNFα normalised to ref cmpd” value in the test with human monocytes was 66% and 71%.
Regarding `Cc1ccc(-c2cc(C(=O)N[C@@H](C)CO)c(=O)n(-c3cnn(C)c3)n2)cc1` [Example 8, N-[(2S)-1-Hydroxypropan-2-yl]-6-(4-methylphenyl)-2-(1-methyl-1H-pyrazol-4-yl)-3-oxo-2,3-dihydropyridazine-4-carboxamide], the IC50 at AHR [1] was 0.0158 µM; on AHR [2], 0.019 µM; at AHR [3] it was > 20 µM. Moreover, in the test on human monocytes, the “Individual Donors Conc of highest rescue” value was 1 μM (4×) and 0.1 μM. In the test on human monocytes, the “Individual Donors % rescue TNFα normalised to ref cmpd” value was 99% and 55% and 104% and 109% and 36%.
